Assay results: patent US20200264182A1, “METHOD FOR DETECTING PROSTATE CANCER” (J-OIL MILLS, INC., priority 2017, published 2020)

Key:
[1] = FAC binding constant; details: at 25° C.
Protocol: (§1) Details of the FAC method are described in Patent Document 2 filed by some of the present applicants, for example.
(§2) Binding constants (at 25° C.) of PhoSL, SRL, NSL and LSL belonging to the fucose α1→6 specific lectin for various sugar chains are shown in Tables 2 to 5.

[2] = FAC binding constant (Table 5 entry); details: Table 5: sugar chain having no fucose; at 25° C.
Protocol: as §1, §2

[3] = test system: serum fucosylated PSA; test: Sandwich ELISA, anti-PSA antibody and biotin-labeled lectin; assay type: binding, human; details: for Δ (=A − B): reaction value of Prostate cancer 4 minus Healthy 1; for lectin reaction value B of Healthy 1: serum of Healthy 1; for lectin reaction value A of Prostate cancer 4: serum of Prostate cancer 4, GS 6 (3 + 3)
Protocol: The anti-PSA antibody from which sugar chains had been removed was diluted to 5 μg/mL with PBS. 25 μL of this diluted solution was added to each well of an ELISA plate and allowed to stand at 37° C. for 12 hours, and then the additive solution was discarded.
150 μL of PBS containing 0.05% Tween 20 (product name: polyoxyethylene sorbitan monolaurate, from Nacalai Tesque, Inc.) was added to each well, and then the additive solution was discarded. This manipulation was repeated three times in total.
25 μL of 1% BSA/PBS was added to each well and allowed to stand at 37° C. for 1 hour, and then the additive solution was discarded.
150 μL of PBS containing 0.05% Tween 20 was added to each well, and then the additive solution was discarded. This manipulation was repeated three times in total.
To graph a calibration curve, 25 μL of the fucosylated PSA reference standard diluted with 1% BSA/PBS to a concentration of 0 to 200 ng/mL was added to each well and allowed to stand at room temperature for 1 hour, and then the additive solution was discarded. In addition, to detect the fucosylated PSA in the serum of the subject by the lectin, 25 μL of serum of “Healthy 1” and “Prostate cancer 4” 2-fold diluted with PBS was added to each well and allowed to stand at room temperature for 1 hour, and then the additive solution was discarded.
In Reference Example 1, 25 μL of a biotin-labeled PhoSL diluted to 0.1 μg/mL with 0.1% BSA/PBS (pH 7.4) was added to each well and allowed to stand at 4° C. for 30 minutes, and then the additive solution was discarded. In Example 1, 25 μL of a biotin-labeled PhoSL diluted to 0.1 μg/mL with 0.1% BSA/10-fold diluted PBS+glycine-NaOH (pH 9.6) was added to each well and allowed to stand at 4° C. for 30 minutes, and then the additive solution was discarded.
25 μL of a horseradish peroxidase (HRP)-labeled streptavidin solution (from Vector Laboratories, Inc., concentration: 0.4 μg/mL, in 1% BSA/PBS) was added to each well and allowed to stand at room temperature for 30 minutes, and then the additive solution was discarded.
25 μL of chromogenic substrate for HRP (product name: TMB, from Kirkegaard & Perry Laboratories, Inc.) was added to each well and allowed to stand at room temperature for 10 minutes.
25 μL of 1M phosphoric acid was added to terminate the reaction.
Absorbance (Ab) at 450 nm and 630 nm was measured using a plate reader, and a measurement (Ab450-630) was obtained.
A calibration curve was graphed by plotting signals (reaction values, Ab450-630) of the fucosylated PSA reference standard with the biotin-labeled PhoSL. A Signal (Ab450-630) of the biotin-labeled PhoSL corresponding to the fucosylated PSA concentration of 10 ng/mL was defined as 10 U/mL.
The signals of biotin-labeled PhoSL (Ab450-630) for the serum fucosylated PSA in the subject samples A were assigned to the calibration curve to calculate reaction values (unit: U/mL).
The PhoSL reaction values for the subject samples A were measured by the same operation as in Example 1. From the PhoSL reaction values, an average value and a median value were determined. Furthermore, a standard cutoff value (89.7 U/mL) was used to determine a detection rate (positive rate) of the prostate cancer patients, and a false detection rate (false positive rate) of the healthy persons.
Comparative Example 2 in Table 9 indicates results of detecting the serum fucosylated PSA using AAL (AAL reaction values) in the subject samples A. Specifically, in Reference Example 1, AAL reaction values were measured in the same manner as in Reference Example 1 except that the biotin-labeled PhoSL was replaced with a biotin-labeled AAL. A standard cut-off value for the AAL reaction values was 894.8 U/mL. As in Example 2, an average value, a median value, a positive rate and a false positive rate were determined from the AAL reaction values.

[4] = sugar chain having fucose other than α1→6 fucose

NSL: fucose α1→6 specific lectin that can be extracted from Naematoloma sublateritium, SEQ ID No. 4 or 5
220000 M⁻¹: Binding constant for sugar chain No. 410 ([1]; sugar chain having α1→6 fucose) | Binding constant for sugar chain No. 418 ([1]; sugar chain having α1→6 fucose)
240000 M⁻¹: Binding constant for sugar chain No. 601 ([1]; sugar chain having α1→6 fucose)
23000 M⁻¹: Binding constant for sugar chain No. 406 ([1]; sugar chain having α1→6 fucose)
36000 M⁻¹: Binding constant for sugar chain No. 015 ([1]; sugar chain having α1→6 fucose) | Binding constant for sugar chain No. 402 ([1]; sugar chain having α1→6 fucose)
51000 M⁻¹: Binding constant for sugar chain No. 401 ([1]; sugar chain having α1→6 fucose)
399.7 U/mL: lectin reaction value A of Prostate cancer 4 ([3]; pH in lectin reaction 7.4)
43000 M⁻¹: Binding constant for sugar chain No. 404 ([1]; sugar chain having α1→6 fucose)
222 U/mL: Δ (=A − B) ([3]; pH in lectin reaction 7.4)
30000 M⁻¹: Binding constant for sugar chain No. 203 ([1]; sugar chain having α1→6 fucose)
177.7 U/mL: lectin reaction value B of Healthy 1 ([3]; pH in lectin reaction 7.4)
42.3 U/mL: lectin reaction value B of Healthy 1 ([3]; pH in lectin reaction 9.6)
52000 M⁻¹: Binding constant for sugar chain No. 403 ([1]; sugar chain having α1→6 fucose)
<1000 M⁻¹: Binding constant for sugar chain No. 728 ([1]; Table 3: sugar chain having fucose other than α1→6 fucose) | Binding constant for sugar chain No. 419 [1, 4] | Binding constant for sugar chain No. 420 [1, 4] | Binding constant for sugar chain No. 718 [1, 4] | Binding constant for sugar chain No. 719 [1, 4] | Binding constant for sugar chain No. 720 [1, 4] | Binding constant for sugar chain No. 721 [1, 4] | Binding constant for sugar chain No. 722 [1, 4] | Binding constant for sugar chain No. 723 [1, 4] | Binding constant for sugar chain No. 726 [1, 4] | Binding constant for sugar chain No. 727 [1, 4] | Binding constant for sugar chain No. 729 [1, 4] | Binding constant for sugar chain No. 730 [1, 4] | Binding constant for sugar chain No. 731 [1, 4] | Binding constant for sugar chain No. 739 [1, 4] | Binding constant for sugar chain No. 909 [1, 4] | Binding constant for sugar chain No. 910 [1, 4] | Binding constant for sugar chain No. 931 [1, 4] | Binding constant for sugar chain No. 932 [1, 4] | Binding constant for sugar chain No. 933 [1, 4] | Binding constant for sugar chain No. 001 ([1]; sugar chain having no fucose) | Binding constant for sugar chain No. 002 ([1]; sugar chain having no fucose) | Binding constant for sugar chain No. 003 ([1]; sugar chain having no fucose) | Binding constant for sugar chain No. 004 ([1]; sugar chain having no fucose) | Binding constant for sugar chain No. 005 ([1]; sugar chain having no fucose) | Binding constant for sugar chain No. 006 ([1]; sugar chain having no fucose) | Binding constant for sugar chain No. 007 ([1]; sugar chain having no fucose) | Binding constant for sugar chain No. 008 ([1]; sugar chain having no fucose) | Binding constant for sugar chain No. 009 ([1]; sugar chain having no fucose) | Binding constant for sugar chain No. 010 ([1]; sugar chain having no fucose) | Binding constant for sugar chain No. 011 ([1]; sugar chain having no fucose) | Binding constant for sugar chain No. 012 ([1]; sugar chain having no fucose) | Binding constant for sugar chain No. 013 ([1]; sugar chain having no fucose) | Binding constant for sugar chain No. 014 ([1]; sugar chain having no fucose) | Binding constant for sugar chain No. 101 ([1]; sugar chain having no fucose) | Binding constant for sugar chain No. 103 ([1]; sugar chain having no fucose) | Binding constant for sugar chain No. 104 ([1]; sugar chain having no fucose) | Binding constant for sugar chain No. 105 ([1]; sugar chain having no fucose) | Binding constant for sugar chain No. 107 ([1]; sugar chain having no fucose) | Binding constant for sugar chain No. 108 ([1]; sugar chain having no fucose) | Binding constant for sugar chain No. 301 ([1]; sugar chain having no fucose) | Binding constant for sugar chain No. 304 ([1]; sugar chain having no fucose) | Binding constant for sugar chain No. 305 ([1]; sugar chain having no fucose) | Binding constant for sugar chain No. 307 ([1]; sugar chain having no fucose) | Binding constant for sugar chain No. 308 ([1]; sugar chain having no fucose) | Binding constant for sugar chain No. 313 ([1]; sugar chain having no fucose) | Binding constant for sugar chain No. 314 ([1]; sugar chain having no fucose) | Binding constant for sugar chain No. 323 ([1]; sugar chain having no fucose) | Binding constant for sugar chain No. 501 ([1]; sugar chain having no fucose) | Binding constant for sugar chain No. 502 ([1]; sugar chain having no fucose) | Binding constant for sugar chain No. 503 ([1]; sugar chain having no fucose) | Binding constant for sugar chain No. 504 ([1]; sugar chain having no fucose) | Binding constant for sugar chain No. 701 ([1]; sugar chain having no fucose) | Binding constant for sugar chain No. 702 ([1]; sugar chain having no fucose) | Binding constant for sugar chain No. 703 ([1]; sugar chain having no fucose) | Binding constant for sugar chain No. 704 ([1]; sugar chain having no fucose) | Binding constant for sugar chain No. 705 ([1]; sugar chain having no fucose) | Binding constant for sugar chain No. 706 ([1]; sugar chain having no fucose) | Binding constant for sugar chain No. 707 ([1]; sugar chain having no fucose) | Binding constant for sugar chain No. 708 ([1]; sugar chain having no fucose) | Binding constant for sugar chain No. 709 ([1]; sugar chain having no fucose) | Binding constant for sugar chain No. 710 ([1]; sugar chain having no fucose) | Binding constant for sugar chain No. 711 ([1]; sugar chain having no fucose) | Binding constant for sugar chain No. 712 ([1]; sugar chain having no fucose) | Binding constant for sugar chain No. 713 ([1]; sugar chain having no fucose) | Binding constant for sugar chain No. 715 ([1]; sugar chain having no fucose) | Binding constant for sugar chain No. 716 ([1]; sugar chain having no fucose) | Binding constant for sugar chain No. 717 ([1]; sugar chain having no fucose) | Binding constant for sugar chain No. 724 ([1]; sugar chain having no fucose) | Binding constant for sugar chain No. 725 ([1]; sugar chain having no fucose) | Binding constant for sugar chain No. 732 ([1]; sugar chain having no fucose) | Binding constant for sugar chain No. 733 ([1]; sugar chain having no fucose) | Binding constant for sugar chain No. 734 ([1]; sugar chain having no fucose) | Binding constant for sugar chain No. 735 ([1]; sugar chain having no fucose) | Binding constant for sugar chain No. 736 ([1]; sugar chain having no fucose) | Binding constant for sugar chain No. 737 ([1]; sugar chain having no fucose) | Binding constant for sugar chain No. 738 ([1]; sugar chain having no fucose) | Binding constant for sugar chain No. 901 ([1]; sugar chain having no fucose) | Binding constant for sugar chain No. 902 ([1]; sugar chain having no fucose) | Binding constant for sugar chain No. 903 ([1]; sugar chain having no fucose) | Binding constant for sugar chain No. 905 ([1]; sugar chain having no fucose) | Binding constant for sugar chain No. 906 ([1]; sugar chain having no fucose) | Binding constant for sugar chain No. 907 ([1]; sugar chain having no fucose) | Binding constant for sugar chain No. 728 [2]
38000 M⁻¹: Binding constant for sugar chain No. 201 ([1]; sugar chain having α1→6 fucose)
50000 M⁻¹: Binding constant for sugar chain No. 405 ([1]; sugar chain having α1→6 fucose)
280000 M⁻¹: Binding constant for sugar chain No. 413 ([1]; sugar chain having α1→6 fucose)
240.3 U/mL: Δ (=A − B) ([3]; pH in lectin reaction 9.6)
282.6 U/mL: lectin reaction value A of Prostate cancer 4 ([3]; pH in lectin reaction 9.6)
120000 M⁻¹: Binding constant for sugar chain No. 602 ([1]; sugar chain having α1→6 fucose)
39000 M⁻¹: Binding constant for sugar chain No. 202 ([1]; sugar chain having α1→6 fucose)
